The values below come from patent publication US20260176320A1, “MODULATORS OF G-PROTEIN COUPLED RECEPTORS” (priority 2018, published 2026).

Where two headings read alike, the source gives them in different places. Where only a bound is given, the exact number is not on record here.

In experiment [1] the target is T1, GLP-1R (Homo sapiens, UniProt P43220). Briefly: HitHunter cAMP assay (GLP-1R). The settings on record: cAMP; for Emax: read-out: (Emax) GLP-1R. The experiment is classed as cell-based. The gist of the method:
(§1)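 cAMP accumulation read by luminescent HitHunter immunocompetition after 30 min room-temperature agonist stimulation. Agonists tested as 22-point twofold dilutions, in duplicate, on 10,000 cells/well in HBSS containing 625 μM IBMX, 10 mM HEPES and 0.2% BSA.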
A general note: Changes in cAMP serve as a functional read-out for many G protein-coupled receptors.

The target of experiment [2] is T2, GIP-R (Homo sapiens, UniProt P48546).
T2 sequence (P48546 22-466): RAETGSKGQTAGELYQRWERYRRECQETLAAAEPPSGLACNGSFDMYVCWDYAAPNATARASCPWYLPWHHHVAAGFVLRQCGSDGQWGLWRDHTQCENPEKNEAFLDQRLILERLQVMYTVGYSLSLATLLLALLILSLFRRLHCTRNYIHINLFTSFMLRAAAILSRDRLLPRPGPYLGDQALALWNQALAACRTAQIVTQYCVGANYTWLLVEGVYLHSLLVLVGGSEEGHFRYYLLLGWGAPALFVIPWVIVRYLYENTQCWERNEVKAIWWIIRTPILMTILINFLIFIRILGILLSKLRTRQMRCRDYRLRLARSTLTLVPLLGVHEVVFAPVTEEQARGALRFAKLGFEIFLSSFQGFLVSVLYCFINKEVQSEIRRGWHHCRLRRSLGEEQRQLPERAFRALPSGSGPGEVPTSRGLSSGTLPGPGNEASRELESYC
Briefly: HitHunter cAMP assay (GIP-R). The settings on record: cAMP; for Emax: read-out: (Emax) GIP-R. The experiment is classed as cell-based. The gist of the method:
as §1

For experiment [3], the system named is mice. Briefly: Glucose tolerance test (GTT). The settings on record: 24 h GTT, s.c., percent of vehicle. The experiment is classed as in vivo, mouse. On the procedure: Freestyle Lite glucometer and strips; compounds to be tested; sterilized glucose solution 200 mg/ml.
Compounds were diluted in PBS from the 1 mM DMSO stocks right before injection. Body weight and baseline blood glucose level for each mouse were measured. Tails were snipped using sterile scissors; blood from tails was used to measure glucose. For 0.25 h GTT, mice were fasted for 5-6 h and injected with compound subcutaneously 15 mins before glucose injection. For 4 h GTT, mice were fasted O/N for 16 h and injected with compound subcutaneously 4 h before glucose injection. For 16 h GTT, mice were injected with compound subcutaneously 16 h before glucose injection; food was removed at the same time. For 24 h GTT, mice were injected with compound subcutaneously 24 h before glucose injection; food was removed 5-6 h before glucose injection. 20% glucose in water was prepared; the solution was sterilized by 0.2 μm-filtration. An intraperitoneal injection of glucose (2 g/kg) was given to the mouse. Continued to take blood samples from the tail. Blood glucose was measured at 10, 20, 30, 40, 60, 90, and 120 minutes after glucose injection. Between each of these time points, the mouse was returned to its cage and monitored (at least 6 replicate mice were used for each time-point). The average glucose measurements were plotted as a function of time and the area under the curve (AUC) was determined.

Experiment [4] deals with T1, GLP-1R. As to the kind of experiment: PathHunter β-arrestin assay. The class given is cell-based. In outline:
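β-Arrestin recruitment measured by PathHunter enzyme-fragment luminescence, read after 3 h dark incubation at room temperature with detection solution. Beforehand, agonist in a 22-point 2-fold series was applied in duplicate for 90 min at 37 °C to 5,000 cells/well in BSA-containing (0.2%) medium.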

Setting [5] is: Table 3, read-out: EC50 GLP-1R/nM.
Where [6] appears, read: Table 3A, read-out: EC50 GLP-1R/nM.
Where [7] appears, read: Table 3, read-out: EC50 GIP-R/nM.
Setting [8] is: Table 3A, read-out: EC50 GIP-R/nM.
The mark [9] stands for this setting: PathHunter β-arrestin assay, read-out: β-arrestin activity EC50.

T1 sequence (P43220 24-463): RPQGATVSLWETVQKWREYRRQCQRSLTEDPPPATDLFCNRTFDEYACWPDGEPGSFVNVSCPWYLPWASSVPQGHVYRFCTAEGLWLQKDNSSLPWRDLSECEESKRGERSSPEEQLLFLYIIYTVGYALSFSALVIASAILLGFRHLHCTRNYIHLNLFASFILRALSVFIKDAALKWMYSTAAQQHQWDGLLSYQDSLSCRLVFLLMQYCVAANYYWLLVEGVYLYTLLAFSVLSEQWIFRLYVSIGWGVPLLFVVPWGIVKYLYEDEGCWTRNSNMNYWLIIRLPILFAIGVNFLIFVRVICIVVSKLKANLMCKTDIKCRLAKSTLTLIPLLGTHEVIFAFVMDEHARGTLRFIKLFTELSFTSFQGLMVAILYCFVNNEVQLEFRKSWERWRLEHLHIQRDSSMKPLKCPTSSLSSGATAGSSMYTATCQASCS

`CCCCCCCCCCCCCCCC(=O)N[C@@H](CCC(=O)NCCCC[C@H](NC(=O)[C@H](CO)NC(=O)[C@@H]1CCCN1C(=O)[C@@H]1CCCN1C(=O)[C@@H]1CCCN1C(=O)[C@H](C)NC(=O)CNC(=O)[C@H](CO)NC(=O)[C@H](CO)NC(=O)[C@@H]1CCCN1C(=O)CNC(=O)CNC(=O)[C@H](C)NC(=O)[C@H](CC(C)C)NC(=O)[C@H](CC(C)C)NC(=O)[C@H](Cc1c[nH]c2ccccc12)NC(=O)[C@H](CC(N)=O)NC(=O)[C@@H](NC(=O)[C@H](Cc1ccccc1)NC(=O)[C@H](CCC(=O)O)NC(=O)C(C)(C)NC(=O)[C@H](C)NC(=O)[C@H](C)NC(=O)[C@H](CCC(N)=O)NC(=O)[C@H](CCCCN)NC(=O)[C@H](CC(=O)O)NC(=O)[C@H](CC(C)C)NC(=O)[C@H](Cc1ccc(O)cc1)NC(=O)[C@@H](NC(=O)[C@H](CO)NC(=O)[C@H](Cc1ccc(O)cc1)NC(=O)[C@H](CC(=O)O)NC(=O)[C@H](CO)NC(=O)[C@@H](NC(=O)[C@H](Cc1ccccc1)NC(=O)[C@@H](NC(=O)CNC(=O)[C@H](CCC(=O)O)NC(=O)CSCC(=O)NCCN1C(=O)CCC1=O)[C@@H](C)O)[C@@H](C)O)[C@@H](C)CC)C(C)C)C(N)=O)C(=O)O` [Compound 114]: the Emax in experiment [1] (Table 3) is 94 to 103%; in experiment [1] (Table 3A), 94 to 103%; in experiment [2] (Table 3), 42 to 63%; in experiment [2] (Table 3A) it was 42 to 63%. Moreover, the EC50 was 0.1 to 10 nM in experiment [1] (setting [5]); 0.1 to 10 nM in experiment [1] (setting [6]); 1 to 10 nM in experiment [2] (setting [7]); 1 to 10 nM in experiment [2] (setting [8]); > 1000 nM in experiment [4] (setting [9]). The AUC score in experiment [3] (dose range 2-5 nmol/kg) is given as 3 (AUC score 3 = 51-75%).

`CCCCCCCCCCCCCCCC(=O)N[C@@H](CCC(=O)NCCCC[C@H](NC(=O)[C@H](CO)NC(=O)[C@@H]1CCCN1C(=O)[C@@H]1CCCN1C(=O)[C@@H]1CCCN1C(=O)[C@H](C)NC(=O)CNC(=O)[C@H](CO)NC(=O)[C@H](CO)NC(=O)[C@@H]1CCCN1C(=O)CNC(=O)CNC(=O)[C@H](C)NC(=O)[C@H](CC(C)C)NC(=O)[C@H](CC(C)C)NC(=O)[C@H](Cc1c[nH]c2ccccc12)NC(=O)[C@H](CC(N)=O)NC(=O)[C@@H](NC(=O)[C@H](Cc1ccccc1)NC(=O)[C@H](CCC(=O)O)NC(=O)C(C)(C)NC(=O)[C@H](C)NC(=O)[C@H](C)NC(=O)[C@H](CCC(N)=O)NC(=O)[C@H](CCCCN)NC(=O)[C@H](CC(=O)O)NC(=O)[C@H](CC(C)C)NC(=O)[C@H](Cc1ccc(O)cc1)NC(=O)[C@@H](NC(=O)[C@H](CO)NC(=O)[C@H](Cc1ccc(O)cc1)NC(=O)[C@H](CC(=O)O)NC(=O)[C@H](CO)NC(=O)[C@@H](NC(=O)[C@H](Cc1ccccc1)NC(=O)[C@@H](NC(=O)CNC(=O)[C@H](CCC(=O)O)NC(=O)CSCC(=O)NCCN1C(=O)C[C@@H](O)C1=O)[C@@H](C)O)[C@@H](C)O)[C@@H](C)CC)C(C)C)C(N)=O)C(=O)O` [Compound 79]: the EC50 in experiment [1] (EC50 GLP-1R/nM, Table 3) is 0.1 to 1 nM; in experiment [1] (EC50 GLP-1R/nM, Table 3A), 0.1 to 1 nM; in experiment [2] (EC50 GIP-R/nM, Table 3), 0.1 to 1 nM; in experiment [2] (EC50 GIP-R/nM, Table 3A) it was 0.1 to 1 nM; in experiment [4], > 1000 nM. The Emax in experiment [1] (Table 3) was found to be 102%; in experiment [1] (Table 3A), 102%; in experiment [2] (Table 3) it was 77%; in experiment [2] (Table 3A) it was 77%. Besides, the AUC score in experiment [3] (dose range 5.1-15 nmol/kg) is 2 (AUC score 2 = 26-50%).

`CCCCCCCCCCCCCCCC(=O)N[C@@H](CCC(=O)NCCCC[C@H](NC(=O)[C@H](CO)NC(=O)[C@@H]1CCCN1C(=O)[C@@H]1CCCN1C(=O)[C@@H]1CCCN1C(=O)[C@H](C)NC(=O)CNC(=O)[C@H](CO)NC(=O)[C@H](CO)NC(=O)[C@@H]1CCCN1C(=O)CNC(=O)CNC(=O)[C@H](C)NC(=O)[C@H](CC(C)C)NC(=O)[C@H](CC(C)C)NC(=O)[C@H](Cc1c[nH]c2ccccc12)NC(=O)[C@H](CC(N)=O)NC(=O)[C@@H](NC(=O)[C@H](Cc1ccccc1)NC(=O)[C@H](CCC(=O)O)NC(=O)C(C)(C)NC(=O)[C@H](C)NC(=O)[C@H](C)NC(=O)[C@H](CCC(N)=O)NC(=O)[C@H](CCCCN)NC(=O)[C@H](CC(=O)O)NC(=O)[C@H](CC(C)C)NC(=O)[C@H](Cc1ccc(O)cc1)NC(=O)[C@@H](NC(=O)[C@H](CO)NC(=O)[C@H](Cc1ccc(O)cc1)NC(=O)[C@H](CC(=O)O)NC(=O)[C@H](CO)NC(=O)[C@@H](NC(=O)[C@H](Cc1ccccc1)NC(=O)[C@@H](NC(=O)CNC(=O)[C@H](CCC(=O)O)NC(=O)CSCC(=O)NCCN1CCCC1=O)[C@@H](C)O)[C@@H](C)O)[C@@H](C)CC)C(C)C)C(N)=O)C(=O)O` [Compound 83]: the maximal response (Emax) in experiment [1] (Table 3) was determined as 106%; in experiment [1] (Table 3A), 106%; in experiment [2] (Table 3) it was 73%; in experiment [2] (Table 3A), 73%. Besides, the EC50 in experiment [1] (setting [5]) was 0.1 to 1 nM; in experiment [1] (setting [6]), 0.1 to 1 nM; in experiment [2] (setting [7]), 1 to 10 nM; in experiment [2] (setting [8]), 1 to 10 nM; in experiment [4] (setting [9]), > 1000 nM. Besides, the AUC score in experiment [3] (dose range 2-5 nmol/kg) is 2 (AUC score 2 = 26-50%).

For `CCCCCCCCCCCCCCCC(=O)N[C@@H](CCC(=O)NCCCC[C@H](NC(=O)[C@H](CO)NC(=O)[C@@H]1CCCN1C(=O)[C@@H]1CCCN1C(=O)[C@@H]1CCCN1C(=O)[C@H](C)NC(=O)CNC(=O)[C@H](CO)NC(=O)[C@H](CO)NC(=O)[C@@H]1CCCN1C(=O)CNC(=O)CNC(=O)[C@H](C)NC(=O)[C@H](CC(C)C)NC(=O)[C@H](CC(C)C)NC(=O)[C@H](Cc1c[nH]c2ccccc12)NC(=O)[C@H](CC(N)=O)NC(=O)[C@@H](NC(=O)[C@H](Cc1ccccc1)NC(=O)[C@H](CCC(=O)O)NC(=O)C(C)(C)NC(=O)[C@H](C)NC(=O)[C@H](C)NC(=O)[C@H](CCC(N)=O)NC(=O)[C@H](CCCCN)NC(=O)[C@H](CC(=O)O)NC(=O)[C@H](CC(C)C)NC(=O)[C@H](Cc1ccc(O)cc1)NC(=O)[C@@H](NC(=O)[C@H](CO)NC(=O)[C@H](Cc1ccc(O)cc1)NC(=O)[C@H](CC(=O)O)NC(=O)[C@H](CO)NC(=O)[C@@H](NC(=O)[C@H](Cc1ccccc1)NC(=O)[C@@H](NC(=O)CNC(=O)[C@H](CCC(=O)O)NC(=O)CCCNC(=O)CN1CCCCC1=O)[C@@H](C)O)[C@@H](C)O)[C@@H](C)CC)C(C)C)C(N)=O)C(=O)O` [Compound 16], the Emax in experiment [1] (Table 3) came to 97%; in experiment [1] (Table 3A) it was 97%; in experiment [2] (Table 3), 22%; in experiment [2] (Table 3A) it was 22%. The EC50 is < 0.1 nM in experiment [1] (setting [5]); < 0.1 nM in experiment [1] (setting [6]); 1 to 10 nM in experiment [2] (setting [7]); 10 to 100 nM in experiment [2] (setting [8]); < 10 nM in experiment [4] (setting [9]). Besides, the AUC score in experiment [3] (dose range 2-5 nmol/kg) was 2 (AUC score 2 = 26-50%).

What is called Emax is the maximal effect, on the per cent scale that the assay sets.
